# Laboratory results taken from US20260327239A1, “COMPOUNDS FOR COVALENT INHIBITION OF SHP2” (Purdue Research Foundation, priority 2023, published 2026).
# Tests used:
# LYP = biological target: T1, LYP (Homo sapiens, UniProt Q9Y2R2); test: Time-dependent IC50 determination, LYP (10 min preincubation, pNPP); type: biochemical
# T1 sequence (Q9Y2R2 1-807): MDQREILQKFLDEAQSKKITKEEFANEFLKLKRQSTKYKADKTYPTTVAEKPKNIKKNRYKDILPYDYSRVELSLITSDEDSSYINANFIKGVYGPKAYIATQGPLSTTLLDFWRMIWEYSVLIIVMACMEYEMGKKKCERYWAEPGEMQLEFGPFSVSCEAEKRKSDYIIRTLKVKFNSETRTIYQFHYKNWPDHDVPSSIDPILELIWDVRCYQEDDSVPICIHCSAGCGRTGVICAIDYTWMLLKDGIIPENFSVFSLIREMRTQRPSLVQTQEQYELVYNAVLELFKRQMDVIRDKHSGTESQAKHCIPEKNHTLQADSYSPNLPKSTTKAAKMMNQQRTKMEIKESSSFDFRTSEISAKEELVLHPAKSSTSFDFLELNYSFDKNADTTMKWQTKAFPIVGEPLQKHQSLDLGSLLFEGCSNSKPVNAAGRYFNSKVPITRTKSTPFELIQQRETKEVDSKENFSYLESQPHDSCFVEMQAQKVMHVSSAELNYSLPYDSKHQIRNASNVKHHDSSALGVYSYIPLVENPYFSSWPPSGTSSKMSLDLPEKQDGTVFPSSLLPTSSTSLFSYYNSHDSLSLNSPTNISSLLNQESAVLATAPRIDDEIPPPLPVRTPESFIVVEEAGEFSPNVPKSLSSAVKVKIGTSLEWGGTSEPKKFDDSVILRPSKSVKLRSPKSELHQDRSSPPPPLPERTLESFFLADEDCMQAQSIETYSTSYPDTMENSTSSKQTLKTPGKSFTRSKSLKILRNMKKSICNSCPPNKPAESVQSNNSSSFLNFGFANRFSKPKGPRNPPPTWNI
# Protocol: During active compound characterization, other common PTPs, including SHP1. PTP1B, and LYP, were counter-screened. Compounds were incubated for 10 minutes with the corresponding PTP (4 μM) before being diluted 50-fold into a solution containing excess substrate para-nitrophenyl phosphate (10 mM) to monitor the remaining activity. […] This was not expected, given their high sequence and structural homology. […] While unexpected, the lower sequence homology provides a rationale for the observed selectivity.
# Inhibitors were evaluated for their ability to inhibit the reaction catalyzed by SHP2 using para-nitrophenyl phosphate (pNPP) as a substrate at pH 7 and 25° C. The reaction was started in a clear flat-bottom 96-well plate (Corning Costar Assay Plate #9017) by the addition of 25 μL of 4 μM PTP in DMG buffer to 25 μl of 2× inhibitor (final concentrations=2 μM PTP, 100-0 μM inhibitor). Reactions were incubated for 1 or 10 minutes before transferring 4 μL into 196 μL of 10.1 mM pNPP in DMG buffer (final concentration=40 nM PTP, 10 mM pNPP). These wells were then allowed to react for 10, 45, or 3 minutes for SHP1 and SHP2, LYP, PTP1B respectively before quenching with 50 μL of 5 M NaOH. Plates were then read for absorbance at 405 nm using a CLARIOstar^Plus plate reader (BMG Labetch). […]
# SHP2 = biological target: T2, SHP2 (Homo sapiens, UniProt Q06124); test: Covalent adduct formation on SHP2 by intact protein LC-MS; type: binding; settings: 10 μM SHP2, 60 minutes
# T2 construct: 4× solution of SHP2 (residues 224-528)
# T2 sequence (Q06124 224-528): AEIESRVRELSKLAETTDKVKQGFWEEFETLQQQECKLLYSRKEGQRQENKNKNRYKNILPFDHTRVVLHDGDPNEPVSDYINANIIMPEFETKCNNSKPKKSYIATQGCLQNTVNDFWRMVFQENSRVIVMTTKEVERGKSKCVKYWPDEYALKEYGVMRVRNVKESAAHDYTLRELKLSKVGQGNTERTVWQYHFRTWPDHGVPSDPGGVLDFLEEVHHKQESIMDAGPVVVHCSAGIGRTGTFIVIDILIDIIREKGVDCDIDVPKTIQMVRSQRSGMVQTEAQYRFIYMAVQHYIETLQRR
# Protocol: To validate covalent modification of SHP2 by the active compounds, adduct formation on SHP2 was measured by intact protein liquid chromatography-mass spectrometry (LC-MS). With intact protein LC-MS, multiply charged states of the protein species can be deconvoluted to achieve the total mass(es). Compounds were incubated with 10 μM SHP2 for 60 minutes before being quenched with acetonitrile for LC-MS analysis by electrospray ionization (ESI) in positive mode. […] (33), and (42) (FIGS. 3A and 3B).
# To unfold protein and quench protein-ligand reactivity, 10 μL of treated or untreated 10 μM SHP2 was diluted in 40 μL of 80% (v/v) formic acid initially, followed by 150 μL of LC-MS buffer (50/50 water/acetonitrile with 0.1% formic acid). 20-25 pmol per sample was analyzed by LC/MS (Agilent 1260 Infinity II with a ZORBAX Rapid Resolution High Definition 300 Å Stable Bond C3, 2.1×100 mm, 1.8 μm column) attached to an Agilent 6129 quadrupole mass spectrometer in positive ion mode. The column was held at 45° C. Mobile solution A was 0.1% formic acid in water, and mobile phase B was 0.1% formic acid in acetonitrile. The gradient used was hold at 10% B for 5 min, increase linearly to 80% B for 15 min, and then hold at 80% B for 5 min. The mass data were collected at a range of 600-1500 m/z. Raw data were processed using MestReNova. For all samples, the deconvoluted mass was calculated by taking the m/z range of 730-1100 Da, and deconvoluted mass range from 36500-37200 Da. An abundance threshold of 10% and tolerance of 30 ppm was set for deconvolution. Unreacted SHP2's total deconvoluted mass was 36602±10 Da; for each deconvolution, the highest deconvoluted mass intensity was utilized as the mass pivot point to determine and identify reacted SHP2 adducts. To calculate the percent SHP2 reacted, the relative abundance intensity of reacted SHP2 was divided by the total relative abundance intensities of unreacted and reacted SHP2.
compound,measurement,setting,value
C=C1C(=O)[C@@]2(C(=O)N3CCN(c4ccc(I)cc4)CC3)CC(=O)C[C@@H]1C2 [Compound 37],IC50,"LYP; LYP, 10 minutes preincubation, curve not completed (solubility), extrapolated, read-out: 10 Minute IC50",495 µM
same,Fold-Selective (10 Minutes),LYP; SHP2 over LYP,31.12
same,Found Ligand Adduct (mass shift),SHP2; intact protein LC-MS,461 Da
same,% SHP2 Reacted (overall adduct formation),"SHP2; PVSN at 20 μM, compound 37 at 10 μM",33%
